In data set [1] the test system is Enterococcus faecalis No. 559. In words: Antibacterial specific activity, twofold dilutions, visual growth evaluation. The class given is cell-based. To be noted: E. faecalis 559; 36° C., 24 hours. How it is done:
(§1) The specific activity of compounds also was determined against bacteria strains such as Staphylococcus aureus No. 25923 ATCC (American Type Culture Collection); Staphylococcus aureus No. 100 KC; Staphylococcus epidermidis No. 533; Enterococcus faecalis No. 559; Enterococcus faecium No. 569, Staphylococcus aureus No. 5 (MRSA), Staphylococcus aureus No. 3797 (MRSA). Staphylococcus aureus was cultured on the Trypticase Soy Agar (BBL) commercially available dry medium. Enterococcus faecalis was cultured on the Columbia Agar (BBL) commercially available dry medium. These media were sterilized by autoclaving at 121° C. for 15 min. Bacterial inoculum was constant and was 5×10^5 CFU/ml (10^5 CFU/0.2 ml). For water-soluble compounds, wells from 2nd through 8th were added with the solvent (water) in an amount of 15 μL per well, then the 1st well was added with 30 μL of the stock solution of the tested compound in […] with a concentration of […], and the concentration was adjusted to 0.007×10^3 M by serial twofold dilutions. A 10-μL portion was taken from every well, and 190 μL of the bacterial culture (10^5 CFU) was added per well. For DMSO-soluble compounds, wells from 2nd through 8th were added with the solvent (DMSO) in an amount of 10 μL per well, then the 1st well was added with 20 μL of the stock solution of the tested compound in […] with a concentration of […], and the concentration was adjusted to 0.039×10^3 M by serial twofold dilutions. A 2-μL portion was taken from each well, and 198 μL of the bacterial culture (10^5 CFU) was added per well.
(§2) The control comprised wells free of tested compounds (culture growth control). In addition, purity control of nutritional media and solvents was used. Plates were incubated in a thermostat at 36° C. for 24 hours.
(§3) Culture growth was evaluated visually by comparison of how microorganisms grew in the presence of tested compounds and in the absence of them. MIC was set equal to the last dilution of a tested agent which suppressed bacterial culture growth.

The next data set has as its system Escherichia coli 4300. The description is as above. The class given is cell-based. The following applies: E. coli 4300; 36° C., 24 hours. How it is done:
[Worded in the source for another organism; this organism is reported under the same test.] as §1, §2, §3

The test system of data set [2] is Staphylococcus aureus No. 100 KC. The description is as above. The following applies: S. aureus 100 KC; 36° C., 24 hours. Format: cell-based. The protocol:
as §1, §2, §3

The test system of data set [3] is Staphylococcus aureus No. 25923 ATCC. The data set is described as above. To be noted: S. aureus 25923; 36° C., 24 hours. Format: cell-based. The protocol: as §1, §2, §3
Data set [4] concerns Staphylococcus aureus No. 3797 (MRSA). The data set is described as above. The class given is cell-based. The following applies: St. aur No. 3797 MRSA; 36° C., 24 hours. How it is done: as §1, §2, §3
Data set [5] has as its system Staphylococcus aureus No. 5 (MRSA). The description is as above. Format: cell-based. The following applies: St. aur No. 5 MRSA; 36° C., 24 hours. The protocol: as §1, §2, §3
Data set [6] relates to Staphylococcus epidermidis No. 533. Described as above. Format: cell-based. The following applies: S. epidermis 533; 36° C., 24 hours. The protocol: as §1, §2, §3
Data set [7] deals with Vancomycin-resistant Enterococcus faecium 569. The data set is described as above. Format: cell-based. The following applies: Vancomycin-resistant E. faecium 569; 36° C., 24 hours. How it is done: as §1, §2, §3
The test system of data set [8] is Herpes Simplex Virus type 2 strain G (No. VR-734 ATCC). In words: Antiviral activity, virus cytopathogenic action in Vero cells. The class given is cell-based. The following applies: 48 hours. The protocol: […] used in the study were used Herpes Simplex Virus type 1 (the Collection of Microorganisms at the Scientific Research Institute of Virology, strain EC), Herpes Simplex Virus type 2 strain G (No. VR-734 ATCC), and human cytomegalovirus strain AD169 (No. VR-538 ATCC). Herpes Simplex viruses type 1 and type 2 were cultured in Vero cells. The cells were incubated in MEM Eagle growth medium (MEM, BioloT, St-Petersburg, 1.3.3) supplemented with 10% fetal bovine serum (BioloT, St-Petersburg, 1.3.12) in Sanyo MCO-15AC gas-flow thermostat (37° C., 5% CO2) (Tokyo, Japan). A seed dose was 2×10^5 cells/ml in the starting inoculum or 2×10^4 cells/well. Herpes Simplex viruses were cultured under the same conditions in the MEM medium without serum (maintenance medium). Starting viral titers were 10^7 TCID50/ml.
For DMSO-soluble preparations, stock solutions were prepared in a concentration of 10 mM in DMSO. For water-soluble preparations, a stock solution prepared had the same concentration in the MEM medium (Minimal Essential Medium) for cell cultures. To control cytotoxicity (see below), the stock solution was diluted in the medium to a concentration of 100 μM and ten-fold serial dilutions of the preparations were made in the MEM medium (for DMSO-soluble compounds—in the MEM medium comprising 3% DMSO). The following concentrations of the preparations were used in the study of […]: if toxicity was not found, the concentrations of 100 μM preparations were 100, 10 and 1 μM; if toxicity was detected, the concentrations of 100 μM preparations were 10, 1, and 0.1 μM. Acyclovir (10 μg/ml) was used for Herpes Simplex viruses of both types as a reference preparation to control the viral model validity.
To study antiviral activity, plate wells with a cell monolayer were added with the preparations in an amount of 0.1 ml/well. To compensate a reduction in the concentration of the preparations, which takes place in the following addition of viruses, twofold concentrations of compounds (i.e. 200, 20 and 2 or 20, 2 and 0.2 μM for […] concentrations of 100 μM preparations, respectively) were used, incubated for an hour and then were infected with the examined 0.1 ml/well viruses in doses 1, 10 and 100 TCID50 (50% tissue infectious dose).
The virus-specific cytogenic action was manifested in an increase in the size of cells, their rounding, and detachment from a substrate. These morphological characteristics served as their marked difference from the cells subjected to a toxic action of high concentrations of the examined preparations. The latter acquired spindle-like shape, lost contacts with neighboring cells of the monolayer, and their boundaries became more distinct.
Intensity of the virus-specific changes in the cells were semi-quantified using a 4-score system: 0—CPA (cytopathogenic action) is not detected; 1—up to 25% virus-infected monolayer; 2—from 25% to 50%; 3—from 50% to 75%; and 4—from 75% to 100%. The antiviral activity of a compound was evaluated according to their ability to reduce the manifestation of cytopathogenic action in the plate wells compared to the control values. Differences with the control values by 1 score and more were considered to be significant.
A general note: Damage to the host cells serves as the signal in cytopathic effect assays.

For data set [9], the system named is Bacillus subtilis BKM B-501. Nature of the data set: Antibacterial activity, serial dilutions in liquid MH medium. Format: cell-based. How it is done:
(§4) The antibacterial activity of the compounds was determined against strains of gram-positive bacteria such as Staphylococcus aureus 209P, Enterococcus faecalis BKM B-871, Micrococcus luteus BKM Ac-2230, Bacillus subtilis BKM B-501, and gram-negative bacteria such as Pseudomonas aeruginosa PAO1 and Escherichia coli KM MGU C-600. BKM strains were acquired from the All-Russia Collection of Microorganisms at the Institute for Biochemistry and Physiology of Microorganisms, Russian Academy of Sciences. Strain Staphylococcus aureus 209P was acquired from the Collection of Microorganisms at the Department of microbiology of the Faculty of Biology of Lomonosov Moscow State University, and Pseudomonas aeruginosa PAO1 was acquired from the Collection of Microorganisms at the Institute of Bioorganic Chemistry of the Russian Academy of Sciences.
(§5) The main parameters characterizing the antibacterial activity are the minimal inhibitory concentration (MIC) and minimal bactericidal concentration (MBC). […] MBC is the least concentration that causes the death of all cells.
(§6) MIC was quantified by inhibiting culture growth in a liquid medium with serial dilutions of compounds using a modified procedure [Amsterdam, D., 1966. “Susceptibility testing of antimicrobials in liquid media,” pp. 52-111. In Loman, V., ed. Antibiotics in laboratory medicine, 4th ed. Williams and Wilkins, Baltimore].
(§7) Bacteria were cultured and tested on an MH liquid medium (Mueller-Hinton medium: a dry extract of beef broth, 4 g/L; starch, 1.5 g/L; casein hydrolyzate, 17.5 g/L; Sigma-Fluka Catalog No. 70192) at 37° C., 100% humidity, and under stirring. Cultures (within 4 to 7 passages after thawing) in the exponential growth phase were used for tests.
(§8) All tested compounds absorb light at 595 nm, a wavelength used for evaluating bacterial culture growth. Therefore, a correction for absorption was applied in estimating the optical density of bacterial suspensions for each compound with account for its concentration in the well. Bacterial growth inhibition (GI) as percentage after 20 hours of incubating cells with compounds was derived from the optical density (A) measured in every well at a wavelength of 595 nm using the equation: GIi=[(Act−Ac0)−(Ait−Ai0)]×100/(Act−Ac0), (1) wherein the subscripts have the following meanings: i denotes the well number, c denotes a control well with bacteria whereto the tested compound is not inserted, 0 refers to the measurement taken immediately once the tested compound was inserted to the well, and t refers to the measurement taken 20 hours after the compound was inserted.
(§9) The protocol for the determination of experimental antibacterial activity of the tested compounds was as follows. A cryovial with the test strain culture in a medium with 7% DMSO stored in liquid nitrogen, was rapidly defrosted, and 1.5 mL of the fresh MH medium was inoculated with 100 μL of the cell suspension. Cells were grown for one day at 37° C. and stirred on an orbital shaker at 150 rpm. The morphologic features of the strain and the absence of contamination with foreign bacteria were verified by: (a) inoculation on an agarized (15 g/L agar) MH medium and observation of the shape and color of the grown colonies and (b) examination of characteristic morphologic features under a microscope (Mikmed-2, LOMO, Russia) equipped with a 40× objective lens. Further, the bacteria were cultured in 1 mL of the liquid MH medium at 37° C. under stirring. The cells were reseeded every day. Cell cultures were used in tests starting with 3rd reseeding and ending with 6th one.
(§10) For testing, 5 μL of a bacterial suspension in the stationary growth phase was transferred to 1 mL of a sterile MH medium and incubated until the exponential growth phase was attained (3 to 5 h, 37° C., stirring at 150 rpm). To estimate the microorganism concentration, the optical density (A) of the resulting bacterial culture was measured at a wavelength of 595 nm. […]

The test system of data set [10] is Micrococcus luteus BKM Ac-2230. The description is as above. Format: cell-based. The protocol:
as §4, §5, §6, §7, §8, §9, §10

[11] abbreviates: MH medium, 20 h, 37° C., 100% growth inhibition.
[12] abbreviates: no colonies on agarized MH medium.

As usually defined, the MIC is the smallest concentration in the dilution series that meets the test's criterion for growth inhibition. On to “6,7-bis-[(Diamide N^α-L-Glycyl)-L-glutamyl]-Protohemin (IX) [XIII]”, for which the MIC in [1] is 12.5 µM; in the data set on Escherichia coli 4300 it was above 50.0 µM; in data set [2], 12.5 µM; in data set [3], 12.5 µM; in data set [4] it was 50 µM; in data set [5] it was 83 µM. Besides, the MIC in data set [6] is 12.5 µM; in data set [7], above 50.0 µM. The “manifestation of the virus CPA” value was 1 (up to 25% virus-infected monolayer) in data set [8] (HSV-2, virus dose 1, concentration 0.1 μM); 1 (up to 25% virus-infected monolayer) in [8] (HSV-2, virus dose 1, concentration 1 μM); 0.5 scores in [8] (HSV-2, virus dose 1, concentration 10 μM); 2 (from 25% to 50%) in data set [8] (HSV-2, virus dose 10, concentration 0.1 μM); 2 (from 25% to 50%) in [8] (HSV-2, virus dose 10, concentration 1 μM); 1^1 (up to 25% virus-infected monolayer) in data set [8] (HSV-2, virus dose 10, concentration 10 μM). The “manifestation of the virus CPA” value in data set [8] (HSV-2, virus dose 100, concentration 0.1 μM) is listed as 3 (from 50% to 75%); in [8] (HSV-2, virus dose 100, concentration 1 μM) it was 3 (from 50% to 75%); in data set [8] (HSV-2, virus dose 100, concentration 10 μM), 3 (from 50% to 75%). For the same compound, in “Water solubility”, the water solubility entry was “water-soluble”.
For the compound `C=CC1=C(C)c2cc3[n-]c(cc4[n-]c(cc5nc(cc1n2)C(C)=C5C=C)c(C)c4CCC(=O)N[C@@H](CCC(=O)NCCO)C(=O)NCCO)c(CCC(=O)N[C@@H](CCC(=O)NCCO)C(=O)NCCO)c3C.[Cl-].[Fe+3]` [XI, 6,7-bis-[(Di-2-hydroxyethylamide)-L-glutamyl]-Protohemin (IX)], the MIC in [1] is 33.3 µM; against Escherichia coli 4300, above 50.0 µM; in data set [2] it was above 50.0 µM; in data set [3] it was 0.39 µM; in [4] it was 12.5 µM; in [5], 12.5 µM. Further, the values for the minimum inhibitory concentration (MIC) in [6] and in [7] were 6.25 µM and above 50.0 µM, respectively. For the same compound, the water solubility result in “Water solubility” is listed as “water-insoluble”.
What is called MBC is the smallest concentration meeting the test's criterion for killing. As to “6,7-bis-[(Dimethyl Ester N^α-L-Glycyl)-L-glutamyl]-Protohemin (IX) [XIV]”, the MIC in [9] (setting [11]) is 6.3 µM; in data set [10] (setting [11]), 1.6 µM; in data set [1] it was 3.12 µM; in the data set on Escherichia coli 4300, above 50.0 µM; in [2] it was 2.6 µM; in data set [3] it was 0.39 µM. Moreover, the MIC in [4] was 2.6 µM; in [5], 3.12 µM; in data set [6], 1.04 µM; in [7], above 50.0 µM. The MBC in data set [9] (setting [12]) came out at 25 µM; in data set [10] (setting [12]), 6.3 µM. Moreover, in the data set “Water solubility”, the water solubility result was “water-insoluble”.
